Measurements: US7163941B2, “Pyrido[2,3-d]pyrimidin-7-carboxylic acid derivatives, their manufacture and use as pharmaceutical agents” (Hoffmann-La Roche Inc., priority 2003, dated 2007)
pIC50: −log10 of the molar value.

Assays:
Lck (p56^lck, active) = target: T1, Lck (p56^lck, active) (Homo sapiens, UniProt P06239); assay: SRC-Inhibitor-Assay (time-resolved fluorescence), Lck enzyme; format: biochemical; conditions: ATP 5 μM, peptide 10 μM, enzyme 2.5 U/ml, pre-incubation 15 min at 15° C.
T1 construct: purchased Upstate (UBI)
Experimental: (§1) The activity of the compounds according to this invention as inhibitors for the src-family tyrosine kinases was shown by using the following assay.
(§2) SRC-Inhibitor-Assay Parameters:
(§3) • Reaction mixture: • ATP 5 μM • Peptide (R+Ja133-Ro): 10 μM • Ja133-Ro 196 nM • Ro 9.8 μM • PT66 230 ng/ml • Assay buffer: 4 mM MgCl2 • 2 mM TCEP • 50 mM HEPES • 0,1% Tween 20 • pH 7.3 • Enzyme: 2.5 U/ml • Inhibitor: max. 25 μM • min. 0.42 nM Material: • Eu-labelled phosphotyrosine antibody: -for Lck Cisbio Mab PT66-K, • for Src EG&G Wallac PT66 Eu-W1024 (all commercially available). • Peptides: Ro: NH2-A-E-E-E-I-Y-G-E-F-E-A-K-K-K-K-CONH2 (SEQ ID NO: 1), and • Ja133-Ro: Ja133-G-Aminocaprylic acid-A-E-E-E-I-Y-G-E-F-E-A-K-K-K-K-CONH2 (SEQ ID NO: 2), wherein Ja133 is LightCycler-Red 640-N-hydroxy succinimide ester; • whereby both peptides were synthesized by an optimized solid phase peptide synthesis protocol (Merrifield, Fed. Proc. Fed. Amer. Soc. Exp. Biol. 21 (1962) 412) on a Zinsser SMP350 peptide synthesizer. Shortly, the peptide was assembled on 160 mg (22.8 μmol scale) of a Rink-Linker modified polystyrene solid phase by repeatedly conjugating an twenty fold excess of aminoacids each protected by temporary piperidine labile Fmoc- and permanent acid labile tert-Bu-, BOC- and Otert-Bu-groups depending on the side chain function. The substrate sequence AEEEIYGEFEAKKKK (SEQ ID NO: 1) was N-terminal additionally mounted with the spacer amino acids Aminocaprylic acid and Glycin. After cleavage of the N-terminal temporary protecting group the still attached and protected peptide was labeled with a 1.5 fold amount of LightCycler-Red 640-N-hydroxy succinimide ester (purchased by Roche Diagnostics GmbH) and triethylamine. After 3 hrs. the resin was washed with Dimethylformamide and Isopropanol until the eluates of the blue resin got colo-rless. […] The substrate was finally isolated by a preparative reverse phase HPLC purification. The purification yielded 12.2 mg RP-HPLC single peak pure blue material (lyophilisate). The identity was proven by MALDI mass spectroscopy [2720.0]. • Enzymes: Upstate Lck (p56^lck, active), Upstate Src (p60^c-src, partially purified) were purchased from UBI. • Time-resolved Fluorescence Assay: Reader: Perkin Elmer, Wallac Viktor 1420-040 multilabel counter; Liquid handling system: Beckman Coulter, Biomek 2000. ATP, Tween 20, HEPES were purchased from Roche Molecular Biochemicals, MgCl2 and MnCl2 were purchased from Merck Eurolab, TCEP was purchased from Pierce, 384 Well low volume fluorescence plates was purchased from Falcon. Assay Description:
(§4) At first the enzyme is pre-incubated for 15 min. at 15° C. in aqueous solution with corresponding amounts of inhibitors according to this invention. Then the phosphorylation reaction is started by adding a reaction mixture, containing ATP, Peptide and PT66, and subsequent shaking. The proceeding of this reaction is immediately monitored using time resolved fluorescence spectroscopy in a suitable well plate reader.
(§5) The IC50-values can be obtained from the reaction rates by using a non-linear curve fit (Excelfit).

[1] = target: T2, Src (p60^c-src, partially purified) (Homo sapiens, UniProt P12931); assay: SRC-Inhibitor-Assay (time-resolved fluorescence), Src enzyme; format: biochemical; conditions: ATP 5 μM, peptide 10 μM, enzyme 2.5 U/ml, pre-incubation 15 min at 15° C.
T2 construct: purchased Upstate (UBI)
Experimental: as §1, §2, §3, §4, §5

T2 sequence (P12931 whole entry, species assumed): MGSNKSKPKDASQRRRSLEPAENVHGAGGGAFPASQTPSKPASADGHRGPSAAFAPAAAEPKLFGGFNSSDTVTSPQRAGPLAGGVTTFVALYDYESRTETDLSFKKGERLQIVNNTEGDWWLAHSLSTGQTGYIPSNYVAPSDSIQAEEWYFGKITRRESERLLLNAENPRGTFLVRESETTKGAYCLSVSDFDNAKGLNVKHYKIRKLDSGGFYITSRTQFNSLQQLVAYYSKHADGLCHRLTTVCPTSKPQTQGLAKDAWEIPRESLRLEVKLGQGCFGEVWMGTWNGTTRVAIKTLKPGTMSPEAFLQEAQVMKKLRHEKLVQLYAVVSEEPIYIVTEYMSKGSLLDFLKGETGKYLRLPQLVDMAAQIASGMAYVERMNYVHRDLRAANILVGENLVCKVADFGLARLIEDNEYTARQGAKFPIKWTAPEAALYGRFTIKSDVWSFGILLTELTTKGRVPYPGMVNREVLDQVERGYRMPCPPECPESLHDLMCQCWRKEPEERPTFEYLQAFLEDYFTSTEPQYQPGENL
T1 sequence (P06239 whole entry, species assumed): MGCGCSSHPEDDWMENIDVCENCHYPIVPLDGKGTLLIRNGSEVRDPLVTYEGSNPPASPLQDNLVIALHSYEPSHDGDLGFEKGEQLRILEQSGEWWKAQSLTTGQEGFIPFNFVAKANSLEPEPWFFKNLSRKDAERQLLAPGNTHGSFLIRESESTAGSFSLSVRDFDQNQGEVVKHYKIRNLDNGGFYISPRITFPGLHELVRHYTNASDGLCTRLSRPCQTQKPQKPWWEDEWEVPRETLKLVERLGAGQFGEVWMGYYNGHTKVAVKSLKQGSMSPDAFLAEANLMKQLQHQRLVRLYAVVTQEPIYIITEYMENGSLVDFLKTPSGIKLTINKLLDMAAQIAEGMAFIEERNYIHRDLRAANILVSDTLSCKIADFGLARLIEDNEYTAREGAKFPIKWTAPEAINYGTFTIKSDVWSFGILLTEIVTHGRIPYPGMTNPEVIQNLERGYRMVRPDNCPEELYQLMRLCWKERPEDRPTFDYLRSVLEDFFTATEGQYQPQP

Structure (SMILES)	pIC50 (Lck (p56^lck, active))	pIC50 [1]
O=C(NCCCN1CCOCC1)c1nc2nc(Nc3ccc(F)cc3)ncc2cc1-c1ccccc1Br [Example 3-32, 6-(2-Bromo-phenyl)-2-(4-fluoro-phenylamino)-pyrido[2,3-d]pyrimidine-7-carboxylic acid (3-morpholin-4-yl-propyl)-amide]	6.71	6.93
O=C(NC1CCNCC1)c1nc2nc(Nc3ccc(N4CCOCC4)cc3)ncc2cc1-c1ccccc1Br [Example 1, 6-(2-Bromo-phenyl)-2-(4-morpholin-4-yl-phenylamino)-pyrido[2,3-d]pyrimidine-7-carboxylic acid piperidin-4-ylamide]	7.22	7.97
CN(C)CC(C)(C)CNC(=O)c1nc2nc(Nc3ccc(F)cc3)ncc2cc1-c1ccccc1Br [Example 3-15, 6-(2-Bromo-phenyl)-2-(4-fluoro-phenylamino)-pyrido[2,3-d]pyrimidine-7-carboxylic acid (3-dimethylamino-2,2-dimethyl-propyl)-amide]	6.66	7.38
CC(CN(C)C)NC(=O)c1nc2nc(Nc3ccc(F)cc3)ncc2cc1-c1ccccc1Br (stereo not shown) [Example 3-23, 6-(2-Bromo-phenyl)-2-(4-fluoro-phenylamino)-pyrido[2,3-d]pyrimidine-7-carboxylic acid (2-dimethylamino-1-methyl-ethyl)-amide]	6.24	6.71
CCN(CC)CCOc1ccc(Nc2ncc3cc(-c4ccccc4Br)c(C(=O)NCCN(C)C)nc3n2)cc1 [Example 3-10, 6-(2-Bromo-phenyl)-2-[4-(2-diethylamino-ethoxy)-phenylamino]-pyrido[2,3-d]pyrimidine-7-carboxylic acid (2-dimethylamino-ethyl)-amide]	8.43	8.80
NS(=O)(=O)CCNC(=O)c1nc2nc(Nc3ccc(F)cc3)ncc2cc1-c1ccccc1Br [Example 3-37, 6-(2-Bromo-phenyl)-2-(4-fluoro-phenylamino)-pyrido[2,3-d]pyrimidine-7-carboxylic acid (2-sulfamoyl-ethyl)-amide]	6.72	7.68
COCCNC(=O)c1nc2nc(Nc3ccc(F)cc3)ncc2cc1-c1ccccc1Br [Example 3-13, 6-(2-Bromo-phenyl)-2-(4-fluoro-phenylamino)-pyrido[2,3-d]pyrimidine-7-carboxylic acid (2-methoxy-ethyl)-amide]	6.44	6.94
O=C(N[C@H]1CCCNC1)c1nc2nc(Nc3ccc(F)cc3)ncc2cc1-c1ccccc1Br [Example 3-47, (S)-6-(2-Bromo-phenyl)-2-(4-fluoro-phenylamino)-pyrido[2,3-d]pyrimidine-7-carboxylic acid piperidin-3-ylamide]	7.56	8.18
CS(=O)(=O)NCCNC(=O)c1nc2nc(Nc3ccc(OCCO)cc3)ncc2cc1-c1ccccc1Br [Example 7-18, 6-(2-bromo-phenyl)-2-[4-(2-hydroxy-ethoxy)-phenylamino]-pyrido[2,3-d]pyrimidine-7-carboxylic acid (2-methanesulfonylamino-ethyl)-amide]	7.73	8.06
CN(C)CCN(C)C(=O)c1nc2nc(Nc3ccc(F)cc3)ncc2cc1-c1ccccc1Br [Example 3-19, 6-(2-Bromo-phenyl)-2-(4-fluoro-phenylamino)-pyrido[2,3-d]pyrimidine-7-carboxylic acid (2-dimethylamino-ethyl)-methyl-amide]	6.45	6.70
NC(=O)c1nc2nc(Nc3ccc(S(N)(=O)=O)cc3)ncc2cc1-c1ccccc1Br [Example 3-4, 6-(2-Bromo-phenyl)-2-(4-sulfamoyl-phenylamino)-pyrido[2,3-d]pyrimidine-7-carboxylic acid amide]	7.13	8.16
O=C(NCCO)c1nc2nc(Nc3cccc(CO)c3)ncc2cc1-c1ccccc1Br [Example 7-4, 6-(2-bromo-phenyl)-2-(3-hydroxymethyl-phenylamino)-pyrido[2,3-d]pyrimidine-7-carboxylic acid (2-hydroxy-ethyl)-amide]	7.00	7.51
CNS(=O)(=O)Cc1cccc(Nc2ncc3cc(-c4ccccc4Br)c(C(N)=O)nc3n2)c1 [Example 3-5, 6-(2-Bromo-phenyl)-2-(3-methylsulfamoylmethyl-phenylamino)-pyrido[2,3-d]pyrimidine-7-carboxylic acid amide]	6.96	7.45
O=C(NC1CCNCC1)c1nc2nc(Nc3ccc(F)cc3)ncc2cc1-c1ccccc1Br [Example 3-11, 6-(2-Bromo-phenyl)-2-(4-fluoro-phenylamino)-pyrido[2,3-d]pyrimidine-7-carboxylic acid piperidin-4-ylamide]	6.11	7.18
CS(=O)(=O)NCCNC(=O)c1nc2nc(Nc3cccc(NS(C)(=O)=O)c3)ncc2cc1-c1ccccc1Br [Example 7-17, 6-(2-bromo-phenyl)-2-(3-methanesulfonylamino-phenylamino)-pyrido[2,3-d]pyrimidine-7-carboxylic acid (2-methanesulfonylamino-ethyl)-amide]	7.93	8.46
CN1CCC(NC(=O)c2nc3nc(Nc4ccc(F)cc4)ncc3cc2-c2ccccc2Br)CC1 [Example 3-21, 6-(2-Bromo-phenyl)-2-(4-fluoro-phenylamino)-pyrido[2,3-d]pyrimidine-7-carboxylic acid (1-methyl-piperidin-4-yl)-amide]	6.20	7.02
CN(C)CCNC(=O)c1nc2nc(Nc3ccc(F)cc3)ncc2cc1-c1ccccc1Br [Example 3-12, 6-(2-Bromo-phenyl)-2-(4-fluoro-phenylamino)-pyrido[2,3-d]pyrimidine-7-carboxylic acid (2-dimethylamino-ethyl)-amide]	6.46	7.47
NC(=O)CNC(=O)c1nc2nc(Nc3ccc(F)cc3)ncc2cc1-c1ccccc1Br [Example 3-20, 6-(2-Bromo-phenyl)-2-(4-fluoro-phenylamino)-pyrido[2,3-d]pyrimidine-7-carboxylic acid carbamoylmethyl-amide]	6.54	7.20
O=C(NCCCN1CCCC1=O)c1nc2nc(Nc3ccc(F)cc3)ncc2cc1-c1ccccc1Br [Example 3-26, 6-(2-Bromo-phenyl)-2-(4-fluoro-phenylamino)-pyrido[2,3-d]pyrimidine-7-carboxylic acid [3-(2-oxo-pyrrolidin-1-yl)-propyl]-amide]	6.56	6.71
O=C(NCCc1cnc[nH]1)c1nc2nc(Nc3ccc(F)cc3)ncc2cc1-c1ccccc1Br [Example 3-39, 6-(2-Bromo-phenyl)-2-(4-fluoro-phenylamino)-pyrido[2,3-d]pyrimidine-7-carboxylic acid [2-(3H-imidazol-4-yl)-ethyl]-amide]	6.94	7.61
O=C(NCC[S+]([O-])CCO)c1nc2nc(Nc3ccc(F)cc3)ncc2cc1-c1ccccc1Br (stereo not shown) [Example 3-43, 6-(2-Bromo-phenyl)-2-(4-fluoro-phenylamino)-pyrido[2,3-d]pyrimidine-7-carboxylic acid [2-(2-hydroxy-ethanesulfinyl)-ethyl]-amide]	6.09	6.89
NC(=O)c1nc2nc(Nc3cccc(S(=O)(=O)CCO)c3)ncc2cc1-c1ccccc1Br [Example 3-6, 6-(2-Bromo-phenyl)-2-[3-(2-hydroxy-ethanesulfonyl)-phenylamino]-pyrido[2,3-d]pyrimidine-7-carboxylic acid amide]	6.84	7.65
CCN(CC)CCOc1ccc(Nc2ncc3cc(-c4ccccc4Br)c(C(N)=O)nc3n2)cc1 [Example 3-2, 6-(2-Bromo-phenyl)-2-[4-(2-diethylamino-ethoxy)-phenylamino]-pyrido[2,3-d]pyrimidine-7-carboxylic acid amide]	7.90	8.36
